Measurements as given in patent US9522923B2, “Selective BACE1 inhibitors” (Eli Lilly and Company, priority 2015, dated 2016).
Like-named read-outs stand apart in the source and are kept apart here.

Columns and labels:
human BACE2 (1-460):Fc = molecular target: T1, human BACE2 (1-460):Fc (Homo sapiens, UniProt Q9Y5Z0); test: BACE2 TMEM27 FRET Assay; format: biochemical
T1 construct: made in house; host or cells: HEK293 (transient transfection, purified from conditioned media by Protein A)
T1 sequence (Q9Y5Z0 21-460): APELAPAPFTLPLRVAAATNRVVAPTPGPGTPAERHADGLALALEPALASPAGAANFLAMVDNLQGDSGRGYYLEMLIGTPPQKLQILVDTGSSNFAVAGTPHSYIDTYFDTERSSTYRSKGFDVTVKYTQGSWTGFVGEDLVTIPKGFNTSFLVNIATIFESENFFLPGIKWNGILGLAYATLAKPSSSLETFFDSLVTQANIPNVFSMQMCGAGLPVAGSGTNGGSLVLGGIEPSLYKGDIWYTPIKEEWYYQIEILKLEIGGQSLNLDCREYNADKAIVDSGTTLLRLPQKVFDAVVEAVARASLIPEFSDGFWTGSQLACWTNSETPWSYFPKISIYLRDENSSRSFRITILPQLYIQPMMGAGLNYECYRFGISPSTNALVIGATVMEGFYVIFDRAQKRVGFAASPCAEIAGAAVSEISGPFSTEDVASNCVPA
Description: (§1) To assess selectivity of BACE1 over BACE2, the test compound is evaluated in FRET-based enzymatic assays using specific substrates for BACE1 and BACE2 as described below. For in vitro enzymatic and cellular assays, the test compound is prepared in DMSO to make up a 10 mM stock solution. The stock solution is serially diluted in DMSO to obtain a ten-point dilution curve with final compound concentrations ranging from 10 μM to 0.05 nM in a 96-well round-bottom plate before conducting the in vitro enzymatic and whole cell assays.
Human BACE1 (accession number: AF190725) and human BACE2 (accession number: AF 204944) are cloned from total brain cDNA by RT-PCR. […]
(§2) Conditioned media of HEK293 cell transiently transfected with huBACE1:Fc or huBACE2:Fc cDNA are collected. […] The purity of final product is assessed by electrophoresis in 4-20% Tris-Glycine SDS-PAGE. […]
Transmembrane protein 27 (TMEM27) (Accession Number NM_020665), also known as Collectrin) is a recently described substrate for BACE2, but not BACE1 (Esterhazy, et al, Cell Metabolism, 14, 365-377 (2011)). […] The RFU of the mixture at time 0 is recorded at excitation wavelength 430 nm and emission wavelength 535 nm. […] The RFU at the end of incubation is recorded with the same excitation and emission settings used at time 0. […]

human BACE1(1-460):Fc = molecular target: T2, human BACE1(1-460):Fc (Homo sapiens, UniProt P56817); test: BACE1 FRET Assay; format: biochemical; conditions: purified recombinant huBACE1:Fc, FRET substrate based on APP; Mean±SEM 0.48, n=4
T2 construct: made in house; host or cells: HEK293 (transient transfection, purified from conditioned media by Protein A)
Description: as §1
Human BACE1 (accession number: AF190725) and human BACE2 (accession number: AF 204944) are cloned from total brain cDNA by RT-PCR. The nucleotide sequences corresponding to amino acid sequences #1 to 460 are inserted into the cDNA encoding human IgG1 (Fc) polypeptide (Vassar et al., Science, 286, 735-742 (1999)). […]
as §2
Serial dilutions of the test compound are prepared as described above. […] The RFU of the mixture at time 0 is recorded at excitation wavelength 355 nm and emission wavelength 460 nm, after brief mixing on a plate shaker. […] The RFU at the end of incubation is recorded with the same excitation and emission settings used at time 0. […]

BACE1 = molecular target: T3, BACE1 (Homo sapiens, UniProt P56817); test: SH-SY5YAPP695Wt Whole Cell Assay (Abeta ELISA); format: cell-based; conditions: 24 hours incubation, conditioned media, Mean ± SEM, n = 4
T3 construct: endogenous in cells; host or cells: SH-SY5Y (ATCC CRL2266) stably expressing human APP695Wt
Description: as §1
The routine whole cell assay for the measurement of inhibition of BACE1 activity utilizes the human neuroblastoma cell line SH-SY5Y (ATCC Accession No. CRL2266) stably expressing a human APP695Wt cDNA. Cells are routinely used up to passage number 6 and then discarded.
SH-SY5YAPP695Wt cells are plated in 96 well tissue culture plates at 5.0×10^4 cells/well in 200 μL culture media (50% MEM/EBSS and Ham's F12, lx each sodium pyruvate, non-essential amino acids and Na bicarbonate containing 10% FBS). The following day, media is removed from the cells, fresh media added then incubated at 37° C. for 24 hours in the presence/absence of test compound at the desired concentration range.
At the end of the incubation, conditioned media are analyzed for evidence of beta-secretase activity by analysis of Abeta peptides 1-40 and 1-42 by specific sandwich ELISAs. […]

T3 sequence (P56817 46-501): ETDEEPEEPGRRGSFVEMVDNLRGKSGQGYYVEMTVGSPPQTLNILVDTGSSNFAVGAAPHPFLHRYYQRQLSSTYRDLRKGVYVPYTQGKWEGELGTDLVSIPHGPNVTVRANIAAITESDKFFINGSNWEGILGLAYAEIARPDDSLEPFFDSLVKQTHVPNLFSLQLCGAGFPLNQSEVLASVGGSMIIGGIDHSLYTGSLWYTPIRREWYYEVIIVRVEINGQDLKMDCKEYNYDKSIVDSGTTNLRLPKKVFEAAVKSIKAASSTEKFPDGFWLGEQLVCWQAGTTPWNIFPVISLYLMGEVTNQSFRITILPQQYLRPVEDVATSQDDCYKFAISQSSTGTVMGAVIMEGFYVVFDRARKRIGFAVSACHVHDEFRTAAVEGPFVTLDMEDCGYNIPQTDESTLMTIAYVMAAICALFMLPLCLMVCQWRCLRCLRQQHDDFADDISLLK
T2 sequence (P56817 22-460): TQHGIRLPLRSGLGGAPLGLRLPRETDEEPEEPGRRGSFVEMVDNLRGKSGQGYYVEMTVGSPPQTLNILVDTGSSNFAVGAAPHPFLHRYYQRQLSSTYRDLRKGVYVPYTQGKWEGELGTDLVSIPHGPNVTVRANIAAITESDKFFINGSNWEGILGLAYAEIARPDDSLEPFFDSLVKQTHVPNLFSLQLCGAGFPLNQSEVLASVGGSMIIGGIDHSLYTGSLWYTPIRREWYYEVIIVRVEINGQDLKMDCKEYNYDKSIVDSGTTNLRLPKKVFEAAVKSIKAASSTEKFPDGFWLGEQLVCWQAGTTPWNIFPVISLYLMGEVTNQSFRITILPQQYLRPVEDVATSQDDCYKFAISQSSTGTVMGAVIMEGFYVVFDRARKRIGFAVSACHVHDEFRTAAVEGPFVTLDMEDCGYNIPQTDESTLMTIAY

## CC(F)(F)[C@H]1OC[C@]2(c3cc(NC(=O)c4cnc(-n5cncn5)cn4)ccc3F)N=C(N)SC[C@H]12 [Example 1, N-[3-[(4aS,5S,7aS)-2-Amino-5-(1,1-difluoroethyl)-4,4a,5,7-tetrahydrofuro[3,4-d][1,3]thiazin-7a-yl]-4-fluoro-phenyl]-5-(1,2,4-triazol-1-yl)pyrazine-2-carboxamide]
Human BACE2 (1-460):Fc; huBACE2:Fc, TMEM27 FRET substrate, Mean±SEM 202, n=4
  IC50: 479 nM
Human BACE2 (1-460):Fc; selectivity for BACE1 over BACE2
  BACE2 IC50 / BACE1 IC50 ratio (selectivity for BACE1): about 400 fold
Human BACE1(1-460):Fc
  IC50: 1.19 nM
BACE1; read-out: SH-SY5YAPP695Wt A-beta (1-40) ELISA IC50
  IC50: 0.385 ± 0.163 nM
BACE1; read-out: SH-SY5YAPP695Wt A-beta (1-42) ELISA IC50
  IC50: 0.381 ± 0.266 nM
